Assay results: the supplement of paper PMC10307832

Key:
Assay in all cases: relative viability (nuclei count vs DMSO), 5 days (fraction); higher = more cells survive
Bosutinib = compound: COc1cc(Nc2c(C#N)cnc3cc(OCCCN4CCN(C)CC4)c(OC)cc23)c(Cl)cc1Cl [Bosutinib]
In short: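 Lung cancer cell lines received five library-drug doses (not always all listed) spaced by √10, pinned on vehicle-anchored 1536-well plates after an overnight stay at 37 °C. Five days later, with no medium change, nuclei were Hoechst-stained, imaged at 4× and counted with MetaXpress. Viability is treated-well nuclei relative to vehicle-well nuclei, as a median across plates. Passing plates had control CV below 25% and at least one doubling.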

Bosutinib + Navitoclax = compound: COc1cc(Nc2c(C#N)cnc3cc(OCCCN4CCN(C)CC4)c(OC)cc23)c(Cl)cc1Cl [Bosutinib] + CC1(C)CCC(c2ccc(Cl)cc2)=C(CN2CCN(c3ccc(C(=O)NS(=O)(=O)c4ccc(N[C@H](CCN5CCOCC5)CSc5ccccc5)c(S(=O)(=O)C(F)(F)F)c4)cc3)CC2)C1 [Navitoclax] (partner 0.5 µM)
In short: (§1)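 Cells from lung cancer lines were seeded into 1536-well plates and, one day later, dosed by pin tool. Treatments were either a single drug or a fixed dose of an anchor drug with five library-drug doses (not always all listed) in √10 steps. After 5 days, nuclei were stained in a one-step fixation (final 0.05% Triton X-100, 1% formaldehyde, 1 ug/ml Hoechst) and counted on 4× images, and relative viability is the treated-to-vehicle nuclei ratio, as the median of duplicate plates.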

Bosutinib + OSI-027 = compound: COc1cc(Nc2c(C#N)cnc3cc(OCCCN4CCN(C)CC4)c(OC)cc23)c(Cl)cc1Cl [Bosutinib] + COc1cccc2cc(-c3nc([C@H]4CC[C@H](C(=O)O)CC4)n4ncnc(N)c34)[nH]c12 [OSI-027] (partner 0.5 µM)
In short: as §1

Bosutinib + Pictilisib = compound: COc1cc(Nc2c(C#N)cnc3cc(OCCCN4CCN(C)CC4)c(OC)cc23)c(Cl)cc1Cl [Bosutinib] + CS(=O)(=O)N1CCN(Cc2cc3nc(-c4cccc5[nH]ncc45)nc(N4CCOCC4)c3s2)CC1 [Pictilisib] (partner 1 µM)
In short: as §1

Bosutinib + Decitabine = compound: COc1cc(Nc2c(C#N)cnc3cc(OCCCN4CCN(C)CC4)c(OC)cc23)c(Cl)cc1Cl [Bosutinib] + Nc1ncn([C@H]2C[C@H](O)[C@@H](CO)O2)c(=O)n1 [Decitabine] (partner 2 µM)
In short: as §1

Row | Cell Line | relative viability (Bosutinib; 0.01 µM) | relative viability (Bosutinib; 0.03162 µM) | relative viability (Bosutinib; 0.1 µM) | relative viability (Bosutinib; 1 µM) | relative viability (Bosutinib + Navitoclax; first compound 0.01 µM) | relative viability (Bosutinib + Navitoclax; first compound 0.03162 µM) | relative viability (Bosutinib + Navitoclax; first compound 0.1 µM) | relative viability (Bosutinib + Navitoclax; first compound 1 µM) | relative viability (Bosutinib + OSI-027; first compound 0.01 µM) | relative viability (Bosutinib + OSI-027; first compound 0.03162 µM) | relative viability (Bosutinib + OSI-027; first compound 0.1 µM) | relative viability (Bosutinib + OSI-027; first compound 1 µM) | relative viability (Bosutinib + Pictilisib; first compound 0.01 µM) | relative viability (Bosutinib + Pictilisib; first compound 0.03162 µM) | relative viability (Bosutinib + Pictilisib; first compound 0.1 µM) | relative viability (Bosutinib + Pictilisib; first compound 1 µM) | relative viability (Bosutinib + Decitabine; first compound 0.01 µM) | relative viability (Bosutinib + Decitabine; first compound 0.03162 µM) | relative viability (Bosutinib + Decitabine; first compound 0.1 µM) | relative viability (Bosutinib + Decitabine; first compound 1 µM)
1 | NCI-H2087 | 1.07 | 1.04 | 0.951 | 1.08 | 0.905 | 0.926 | 0.972 | 1.04 | 0.685 | 0.701 | 0.727 | 0.727 | 0.753 | 0.865 | 0.972 | 0.798 | 0.289 | 0.311 | 0.294 | 0.271
2 | NCI-H2126 | 0.972 | 0.997 | 0.969 | 0.994 | 0.797 | 0.904 | 0.85 | 0.776 | 0.678 | 0.784 | 0.753 | 0.688 | 0.496 | 0.517 | 0.522 | 0.506 | 0.548 | 0.537 | 0.609 | 0.588
3 | NCI-H2170 | 1.01 | 0.974 | 1.01 | 0.926 | 0.527 | 0.67 | 0.702 | 0.468 | 0.7 | 0.684 | 0.732 | 0.654 | 0.348 | 0.359 | 0.301 | 0.271 | 0.429 | 0.465 | 0.463 | 0.457
4 | NCI-H2347 | 1.03 | 1.09 | 0.992 | 1.06 | 0.797 | 0.793 | 0.752 | 0.781 | 0.347 | 0.436 | 0.436 | 0.385 | 0.648 | 0.575 | 0.697 | 0.383 | 0.631 | 0.623 | 0.64 | 0.529
5 | NCI-H2405 | 1.05 | 1.1 | 1.03 | 0.801 | 0.943 | 0.812 | 0.892 | 0.477 | 0.634 | 0.619 | 0.615 | 0.629 | 0.481 | 0.449 | 0.435 | 0.311 | 0.749 | 0.775 | 0.757 | 0.57
6 | NCI-H3122 | 1.02 | 1.02 | 1.01 | 0.993 | 0.99 | 0.972 | 1.01 | 1.03 | 1.05 | 1.04 | 1.03 | 1.17 | 0.623 | 0.609 | 0.624 | 0.761 | 0.43 | 0.462 | 0.388 | 0.538
